Data on ten compounds can be found in patent US20120245184A1 (Aderans Research Institute, Inc., priority 2006, published 2012).

In assay [1] the test system is sonic hedgehog pathway. The assay can be described thus: Hedgehog reporter assay (gli-luciferase) in TM3 cells. It is filed as cell-based, mouse. The note with it: TM3 mouse Leydig cells, gli-luciferase reporter; read-out: TM3 Avg. EC50. An excerpt:
(§1) Mouse (TM3: mouse Leydig cells; S12: mouse embryonic mesenchymal cells) and human (Daoy: human medulloblastoma cell; HepM: human embryonic palatal mesenchymal cell) cell lines are used to screen small molecules for their ability to modulate the activity of the sonic hedgehog pathway (Table 1, Table 2, and Table 3). Stable hedgehog pathway reporter cell lines are established by specific antibiotic selection following transfection of a reporter plasmid containing a luciferase gene located directly downstream from the gli promoter. Consequently, any observable changes in cellular luciferase activity may be attributed to changes in sonic hedgehog pathway activity in mouse and human cells, respectively, since gli is the major by-product of this pathway. To calculate activity, we generate an eleven point dose curve for each compound using 1:3 dilutions in 96 well assay plates. Each plate tested also contains low and high control to establish maximal pathway activation so to establish/compare a percentage activation of each tested compound (AMAX) on respective plates.
(§2) Stable hedgehog pathway reporter cell lines are established following specific antibiotic selection following transfection of a reporter plasmid
(§3) In short, typically cells are plated in MicroTiter-plates at 10,000-20,000 cells per well, in growth media (containing 10%-20% FBS). After 48-72 hrs (HGL and DGL respectively) the media in the assay plates is switched to low-serum containing media (0.5% FBS). At that time compounds are added (at 1-5 μM) to the assay plates, in the presence or absence of hedgehog protein (octyl-modified version; 1-5 ng/ml). After another 24 hrs of incubation, the media from the assay plates is discarded and replaced with luciferase assay-mix. Subsequently, plates are incubated at RT for ˜15-30 mins and then read in a luminometer. [note: addition of the Hedgehog protein, although not critical, will sensitize the assay allowing the identification of weak actives].
(Reporter assays use an easily measured gene product as a stand-in for the process of interest.)

Assay [2] deals with sonic hedgehog pathway. The assay can be described thus: Human hedgehog reporter assay Daoy-GliLuc (DGL). The format is cell-based. Conditions: Daoy human medulloblastoma cells, gli-luciferase reporter; read-out: Daoy Avg. EC50.
Source text: as §1, §2, §3

What is called EC50 is the concentration at which the effect is half-maximal.

Where a name gives a salt, the structure may show the parent alone.

As to `CNC1CCC(N(Cc2cc(-c3ccc(C(F)(F)F)cc3)ccc2OC)C(=O)c2sc3ccccc3c2Cl)CC1` (stereo not shown) [Compound 306, 3-Chloro-benzo[b]thiophene-2-carboxylic acid (4-methoxy-4′-trifluoromethyl-biphenyl-3-ylmethyl)-(4-methylamino-cyclohexyl)-amide trifluoroacetate], the figures for the EC50 in the assay on sonic hedgehog pathway [1] and with sonic hedgehog pathway [2] were 50 to 250 nM and below 50 nM, respectively.
With `CNC1CCC(N(Cc2cc(-c3ccc(OC(F)(F)F)cc3)ccc2OC)C(=O)c2sc3ccccc3c2Cl)CC1` (stereo not shown) [Compound 307, 3-Chloro-benzo[b]thiophene-2-carboxylic acid (4-methoxy-4′-trifluoromethoxy-biphenyl-3-ylmethyl)-(4-methylamino-cyclohexyl)-amide hydrochloride], the EC50 in the assay with sonic hedgehog pathway [1] and with sonic hedgehog pathway [2] was below 50 nM in each case.
For the compound `CNC1CCC(N(Cc2cc(-c3ccc(Cl)cc3)ccc2OC)C(=O)c2sc3ccccc3c2Cl)CC1` (stereo not shown) [Compound 308, 3-Chloro-benzo[b]thiophene-2-carboxylic acid (4′-chloro-4-methoxy-biphenyl-3-ylmethyl)-(4-methylamino-cyclohexyl)-amide hydrochloride], the EC50 in the assay on sonic hedgehog pathway [1] and in the assay with sonic hedgehog pathway [2] was below 50 nM each time.
As to `CCOc1ccc(-c2ccc(C(F)(F)F)cc2)cc1CN(C(=O)c1sc2ccccc2c1Cl)C1CCC(NC)CC1` (stereo not shown) [Compound 309, 3-Chloro-benzo[b]thiophene-2-carboxylic acid (4-ethoxy-4′-trifluoromethyl-biphenyl-3-ylmethyl)-(4-methylamino-cyclohexyl)-amide hydrochloride], the results for the EC50 in the assay with sonic hedgehog pathway [1] and with sonic hedgehog pathway [2] were 50 to 250 nM and below 50 nM, respectively.
Take `CCOc1ccc(-c2ccc(OC)cc2)cc1CN(C(=O)c1sc2ccccc2c1Cl)C1CCC(NC)CC1` (stereo not shown) [Compound 312, 3-Chloro-benzo[b]thiophene-2-carboxylic acid (4-ethoxy-4′-methoxy-biphenyl-3-ylmethyl)-(4-methylamino-cyclohexyl)-amide hydrochloride]: in the assay with sonic hedgehog pathway [2], the EC50 was in the range of 50 to 250 nM.
In the case of `CCOc1ccc(-c2ccccc2)cc1CN(C(=O)c1sc2ccccc2c1Cl)C1CCC(NC)CC1` (stereo not shown) [Compound 313, 3-Chloro-benzo[b]thiophene-2-carboxylic acid (4-ethoxy-biphenyl-3-ylmethyl)-(4-methylamino-cyclohexyl)-amide hydrochloride], the EC50 with sonic hedgehog pathway [1] is 50 to 250 nM; in the assay with sonic hedgehog pathway [2], below 50 nM.
Regarding `CN[C@H]1CC[C@H](N(Cc2cc(-c3ccc(F)cc3)ccc2OC)C(=O)c2sc3ccccc3c2Cl)CC1` [Compound 314, 3-Chloro-benzo[b]thiophene-2-carboxylic acid (4′-fluoro-4-methoxy-biphenyl-3-ylmethyl)-(4-methylamino-cyclohexyl)-amide hydrochloride], the EC50 in the assay on sonic hedgehog pathway [1] and with sonic hedgehog pathway [2] was below 50 nM each time.
Turning to `CNc1ncc(-c2ccc(OC)c(CN(C(=O)c3sc4ccccc4c3Cl)[C@H]3CC[C@H](NC)CC3)c2)cn1` [Compound 322, 3-Chloro-benzo[b]thiophene-2-carboxylic acid[2-methoxy-5-(2-methylamino-pyrimidin-5-yl)-benzyl]-(4-methylamino-cyclohexyl)-amide dihydrochloride], the concentration for a half-maximal effect (EC50) was in the range of 250 to 1000 nM in the assay with sonic hedgehog pathway [1] and 50 to 250 nM in the assay on sonic hedgehog pathway [2].
In the case of `CN[C@H]1CC[C@H](N(Cc2cc(-c3cnc(N)nc3)ccc2OC)C(=O)c2sc3ccccc3c2Cl)CC1` [Compound 323, 3-Chloro-benzo[b]thiophene-2-carboxylic acid[5-(2-amino-pyrimidin-5-yl)-2-methoxy-benzyl]-(4-methylamino-cyclohexyl)-amide dihydrochloride], the EC50 in the assay on sonic hedgehog pathway [1] is 50 to 250 nM; in the assay with sonic hedgehog pathway [2], below 50 nM.
`CN[C@H]1CC[C@H](N(Cc2cc(-c3cccc(C(C)=O)c3)ccc2OC)C(=O)c2sc3cccc(F)c3c2Cl)CC1` [Compound 363, 3-Chloro-4-fluoro-benzo[b]thiophene-2-carboxylic acid (3′-acetyl-4-methoxy-biphenyl-3-ylmethyl)-(4-methylamino-cyclohexyl)-amide hydrochloride]: the EC50 with sonic hedgehog pathway [1] and in the assay with sonic hedgehog pathway [2] was below 50 nM each time.
